# System: HMOX1 in Normal Human Lung Fibroblasts (NHLF)
# Assay: HMOX1 Protein Expression (immunostaining, fold induction or % positive cells over DMSO)
# [1] = Homo sapiens, Fibroblast, read-out: Fold Induction of HMOX
# Protocol: Normal Human Lung Fibroblasts (NHLF) obtained from Lonza were cultured in T-225 flasks using conditions recommended by the vendor (FGM-2 medium supplemented with 2% fetal bovine serum (FBS), fibroblast growth factor (hFGF-B) 0.5 mL, insulin 0.5 mL, and gentamicin/amphotericin-B 0.5 mL at 37° C. in a humidified atmosphere of 5% CO2).
# For assays, cell were thawed and placed into culture in T225 flasks, grown to be 80% confluent, and harvested as described by the vendor. NHLF cells (2.5×10^4 cells per well) were plated in 384 well optilux tissue culture (BD) plates and incubated overnight in media prior to exposure to compound. Cells were incubated with DMSO or various combinations of either an Nrf2 Activator (DMF (dimethyl fumarate)/CDDO-Me) or a Bach1 Inhibitor for 16-18 hr. Cells were then fixed and permeabilized prior to incubation with HMOX1 antibody (abcam; 1:300 dilution in 1% BSA in PBS) for 1 hour. Cells were then washed and incubated with a solution of fluorescently-coupled goat anti-mouse antibody (Alexa 488 1:400 dilution Invitrogen) and Hoechst nuclear stain (1:2000; Invitrogen) in PBS containing 1% BSA for 1 hr. Immunostaining was detected using a GE InCell 2000 instrument at the following wavelengths: Hoechst Ex/Em 360/535 and Alexa 488 Ex/Em 480/535. Results were analyzed using GE InCell Analyzer software and represented as the increase fold of HMOX1 induction (Fold induction/FI) or the percentage of HMOX1 positive (% positive) cells over DMSO.
compound,measurement,setting,value
"CNC(=O)c1ccc2c(c1)nc(Nc1nc3ccc(OC(F)(F)F)cc3s1)n2C [HPP-A, 1-Methyl-2-(6-trifluoromethoxy-benzothiazol-2-ylamino)-1H-benzoimidazole-5-carboxylic acid methyl amide]",increase HMOX1 (FIG. 1 bar A),156 nM HPP-A alone,3.5 fold
same,combined effect on HMOX induction (FIG. 1 bar C),156 nM HPP-A combined with 9.7 nM CDDO-Me,greater than additive
same,Fold Induction of HMOX,"HPP-A 0.019 uM, Bardoxolone Methyl 0 uM",0.97 fold
same,Fold Induction of HMOX,"HPP-A 0.019 uM, Bardoxolone Methyl 0.0024 uM",3.24 fold
same,Fold Induction of HMOX,"HPP-A 0.019 uM, Bardoxolone Methyl 0.0048 uM",2.88 fold
same,Fold Induction of HMOX,"HPP-A 0.019 uM, Bardoxolone Methyl 0.0097 uM",7.14 fold
same,Fold Induction of HMOX,"HPP-A 0.019 uM, Bardoxolone Methyl 0.039 uM",15.87 fold
same,Fold Induction of HMOX,"HPP-A 0.019 uM, Bardoxolone Methyl 0.078 uM",22.27 fold
same,Fold Induction of HMOX,"HPP-A 0.019 uM, Bardoxolone Methyl 0.156 uM",22.90 fold
same,Fold Induction of HMOX,"HPP-A 0.019 uM, Bardoxolone Methyl 0.312 uM",17.20 fold
same,Fold Induction of HMOX,"HPP-A 0.039 uM, Bardoxolone Methyl 0 uM",1.09 fold
same,Fold Induction of HMOX,"HPP-A 0.039 uM, Bardoxolone Methyl 0.0024 uM",2.32 fold
same,Fold Induction of HMOX,"HPP-A 0.039 uM, Bardoxolone Methyl 0.0048 uM",3.04 fold
same,Fold Induction of HMOX,"HPP-A 0.039 uM, Bardoxolone Methyl 0.0097 uM",5.31 fold
same,Fold Induction of HMOX,"HPP-A 0.039 uM, Bardoxolone Methyl 0.019 uM",8.57 fold
same,Fold Induction of HMOX,"HPP-A 0.039 uM, Bardoxolone Methyl 0.078 uM",18.69 fold
same,Fold Induction of HMOX,"HPP-A 0.039 uM, Bardoxolone Methyl 0.156 uM",17.24 fold
same,Fold Induction of HMOX,"HPP-A 0.039 uM, Bardoxolone Methyl 0.312 uM",17.44 fold
same,Fold Induction of HMOX,"HPP-A 0.078 uM, Bardoxolone Methyl 0 uM",1.92 fold
same,Fold Induction of HMOX,"HPP-A 0.078 uM, Bardoxolone Methyl 0.0024 uM",4.25 fold
same,Fold Induction of HMOX,"HPP-A 0.078 uM, Bardoxolone Methyl 0.0048 uM",4.72 fold
same,Fold Induction of HMOX,"HPP-A 0.078 uM, Bardoxolone Methyl 0.0097 uM",8.43 fold
same,Fold Induction of HMOX,"HPP-A 0.078 uM, Bardoxolone Methyl 0.019 uM",13.21 fold
same,Fold Induction of HMOX,"HPP-A 0.078 uM, Bardoxolone Methyl 0.039 uM",17.81 fold
same,Fold Induction of HMOX,"HPP-A 0.078 uM, Bardoxolone Methyl 0.156 uM",17.88 fold
same,Fold Induction of HMOX,"HPP-A 0.078 uM, Bardoxolone Methyl 0.312 uM",15.33 fold
same,Fold Induction of HMOX,"HPP-A 0.156 uM, Bardoxolone Methyl 0 uM",3.46 fold
same,Fold Induction of HMOX,"HPP-A 0.156 uM, Bardoxolone Methyl 0.0024 uM",7.32 fold
same,Fold Induction of HMOX,"HPP-A 0.156 uM, Bardoxolone Methyl 0.0048 uM",8.04 fold
same,Fold Induction of HMOX,"HPP-A 0.156 uM, Bardoxolone Methyl 0.0097 uM",12.05 fold
same,Fold Induction of HMOX,"HPP-A 0.156 uM, Bardoxolone Methyl 0.019 uM",15.95 fold
same,Fold Induction of HMOX,"HPP-A 0.156 uM, Bardoxolone Methyl 0.039 uM",17.59 fold
same,Fold Induction of HMOX,"HPP-A 0.156 uM, Bardoxolone Methyl 0.078 uM",18.44 fold
same,Fold Induction of HMOX,"HPP-A 0.156 uM, Bardoxolone Methyl 0.312 uM",15.98 fold
same,Fold Induction of HMOX,"HPP-A 0.312 uM, Bardoxolone Methyl 0 uM",9.82 fold
same,Fold Induction of HMOX,"HPP-A 0.312 uM, Bardoxolone Methyl 0.0024 uM",11.67 fold
same,Fold Induction of HMOX,"HPP-A 0.312 uM, Bardoxolone Methyl 0.0048 uM",13.59 fold
same,Fold Induction of HMOX,"HPP-A 0.312 uM, Bardoxolone Methyl 0.0097 uM",16.45 fold
same,Fold Induction of HMOX,"HPP-A 0.312 uM, Bardoxolone Methyl 0.019 uM",17.74 fold
same,Fold Induction of HMOX,"HPP-A 0.312 uM, Bardoxolone Methyl 0.039 uM",19.61 fold
same,Fold Induction of HMOX,"HPP-A 0.312 uM, Bardoxolone Methyl 0.078 uM",21.13 fold
same,Fold Induction of HMOX,"HPP-A 0.312 uM, Bardoxolone Methyl 0.156 uM",19.21 fold
same,Fold Induction of HMOX,"HPP-A 0.625 uM, Bardoxolone Methyl 0 uM",15.00 fold
same,Fold Induction of HMOX,"HPP-A 0.625 uM, Bardoxolone Methyl 0.0024 uM",15.70 fold
same,Fold Induction of HMOX,"HPP-A 0.625 uM, Bardoxolone Methyl 0.0048 uM",17.10 fold
same,Fold Induction of HMOX,"HPP-A 0.625 uM, Bardoxolone Methyl 0.0097 uM",17.18 fold
same,Fold Induction of HMOX,"HPP-A 0.625 uM, Bardoxolone Methyl 0.019 uM",16.84 fold
same,Fold Induction of HMOX,"HPP-A 0.625 uM, Bardoxolone Methyl 0.039 uM",17.24 fold
same,Fold Induction of HMOX,"HPP-A 0.625 uM, Bardoxolone Methyl 0.078 uM",18.60 fold
same,Fold Induction of HMOX,"HPP-A 0.625 uM, Bardoxolone Methyl 0.156 uM",18.68 fold
same,Fold Induction of HMOX,"HPP-A 0.625 uM, Bardoxolone Methyl 0.312 uM",12.69 fold
same,Fold Induction of HMOX,"HPP-A 1.25 uM, Bardoxolone Methyl 0 uM",16.17 fold
same,Fold Induction of HMOX,"HPP-A 1.25 uM, Bardoxolone Methyl 0.0024 uM",16.12 fold
same,Fold Induction of HMOX,"HPP-A 1.25 uM, Bardoxolone Methyl 0.0048 uM",17.26 fold
same,Fold Induction of HMOX,"HPP-A 1.25 uM, Bardoxolone Methyl 0.0097 uM",16.49 fold
same,Fold Induction of HMOX,"HPP-A 1.25 uM, Bardoxolone Methyl 0.019 uM",15.93 fold
same,Fold Induction of HMOX,"HPP-A 1.25 uM, Bardoxolone Methyl 0.039 uM",15.63 fold
same,Fold Induction of HMOX,"HPP-A 1.25 uM, Bardoxolone Methyl 0.078 uM",15.15 fold
same,Fold Induction of HMOX,"HPP-A 1.25 uM, Bardoxolone Methyl 0.156 uM",16.65 fold
same,Fold Induction of HMOX,"HPP-A 1.25 uM, Bardoxolone Methyl 0.312 uM",10.53 fold
same,Fold Induction of HMOX,"HPP-A 2.5 uM, Bardoxolone Methyl 0 uM",17.48 fold
same,Fold Induction of HMOX,"HPP-A 2.5 uM, Bardoxolone Methyl 0.0024 uM",18.81 fold
same,Fold Induction of HMOX,"HPP-A 2.5 uM, Bardoxolone Methyl 0.0048 uM",19.48 fold
same,Fold Induction of HMOX,"HPP-A 2.5 uM, Bardoxolone Methyl 0.0097 uM",19.42 fold
same,Fold Induction of HMOX,"HPP-A 2.5 uM, Bardoxolone Methyl 0.019 uM",17.04 fold
same,Fold Induction of HMOX,"HPP-A 2.5 uM, Bardoxolone Methyl 0.039 uM",14.71 fold
same,Fold Induction of HMOX,"HPP-A 2.5 uM, Bardoxolone Methyl 0.078 uM",14.33 fold
same,Fold Induction of HMOX,"HPP-A 2.5 uM, Bardoxolone Methyl 0.156 uM",12.49 fold
same,Fold Induction of HMOX,"HPP-A 5 uM, Bardoxolone Methyl 0 uM",17.72 fold
same,maximum HMOX1 fold induction,"HPP-A alone, concentrations greater than or equal to 2500 nM",18 fold
same,fold induction at 0.019 µM,[1],10
same,fold induction at 0.039 µM,[1],14.7
same,fold induction at 0.078 µM,[1],19.5
same,fold induction at 0.156 µM,[1],18.3
same,fold induction at 0.312 µM,[1],17.4

# Source: patent US10898475B2, “Bach1 inhibitors in combination with Nrf2 activators and pharmaceutical compositions thereof” (vTv Therapeutics LLC, priority 2014, dated 2021)
